Data on 18 compounds can be found in patent US12692261B2, “Substituted heterocyclic compounds and therapeutic uses thereof” (Bayer Aktiengesellschaft, priority 2020, dated 2026).

Molecules are shown by their SMILES.

Experiment [1] deals with T1, full-length human CSNK1A1 (Homo sapiens, UniProt P48729).
T1 construct: N-terminal Glutathion-S-Transferase (GST) and full-length human CSNK1A1; purchased Life Technologies PV4174; host or cells: baculovirus infected insect cells
As to the kind of experiment: CSNK1A1 Assay 2 (ADP-Glo, 1 μM ATP, substrate biotin-Ahx-KRRRAL-pS-VASLPGL). In kind it is biochemical. Particulars: Table 3, read-out: CSNK1A1 Assay 2 IC50 [mol/l] (median). The procedure, abridged:
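GST-tagged full-length human CSNK1A1 from baculovirus-infected insect cells (about 0.0375 ng/μL), preincubated 15 min at 22 °C with compound in HEPES pH 7.5 buffer, with 1 μM ATP and biotin-Ahx-KRRRAL-pS-VASLPGL substrate. ADP formed read by ADP-Glo luminescence.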

Experiment [2] addresses T1, full-length human CSNK1A1. As to the kind of experiment: CSNK1A1 High ATP Assay (ADP-Glo, 1 mM ATP).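 Also: 30 min kinase reaction at 22 °C with 100 µM peptide substrate.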 In kind it is biochemical. The conditions noted are these: Table 3, read-out: CSNK1A1 high ATP assay IC50 [mol/l] (median). The procedure, abridged:
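GST-tagged full-length human CSNK1A1 from baculovirus-infected insect cells (typically about 0.4 ng/μL), pre-incubated with compound 15 min at 22 °C. Reaction with biotinylated peptide biotin-Ahx-KRRRAL-pS-VASLPGL at 1 mM ATP. ADP formed read by ADP-Glo luminescence.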

T1 sequence (P48729 whole entry): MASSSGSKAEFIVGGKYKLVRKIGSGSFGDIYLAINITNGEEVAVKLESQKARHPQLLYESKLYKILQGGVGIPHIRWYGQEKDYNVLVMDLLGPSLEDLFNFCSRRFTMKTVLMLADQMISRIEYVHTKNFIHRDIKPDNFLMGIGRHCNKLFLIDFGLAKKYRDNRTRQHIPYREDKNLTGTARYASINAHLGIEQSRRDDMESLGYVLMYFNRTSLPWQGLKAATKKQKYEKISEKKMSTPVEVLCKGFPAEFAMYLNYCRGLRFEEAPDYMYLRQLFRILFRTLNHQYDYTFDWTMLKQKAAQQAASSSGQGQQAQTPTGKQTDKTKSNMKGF

As to `O=C(Nc1cc(-c2[nH]c3cccnc3c2-c2ccccn2)ccn1)C(CC(F)F)c1ccc(F)cc1` (single isomer, unassigned; (-)) [Example 12, (−)-4,4-difluoro-2-(4-fluorophenyl)-N-{4-[3-(pyridin-2-yl)-1H-pyrrolo[3,2-b]pyridin-2-yl]pyridin-2-yl}butanamide], the IC50 was found to be 4.45 nM in experiment [1] and 856 nM in experiment [2].

With `O=C(Nc1cc(-c2[nH]c3nccnc3c2-c2ccccn2)ccn1)[C@@H](CC(F)F)c1ccc(F)cc1` (single isomer, unassigned) [Example 32], the IC50 in experiment [1] and in experiment [2] was 1.37 nM in each case.

`O=C(Nc1cc(-c2[nH]c3cccnc3c2-c2ncccn2)ccn1)C(CC(F)F)c1ccc(F)cc1` (racemic) [Example 112, (2RS)-4,4-difluoro-2-(4-fluorophenyl)-N-[4-(3-pyrimidin-2-yl-1H-pyrrolo[3,2-b]pyridin-2-yl)-2-pyridyl]butanamide]: the figures for the IC50 in experiment [1] and in experiment [2] were 10.1 nM and 217 nM, respectively.

Regarding `Cc1ccc2[nH]c(-c3ccnc(NC(=O)C(CC(F)F)c4ccc(F)cc4)c3)c(-c3ccccn3)c2n1` (racemic) [Example 4, 4,4-difluoro-2-(4-fluorophenyl)-N-{4-[5-methyl-3-(pyridin-2-yl)-1H-pyrrolo[3,2-b]pyridin-2-yl]pyridin-2-yl}butanamide], the IC50 came out at 6.49 nM in experiment [1] and 158 nM in experiment [2].

Take `O=C(Nc1cc(-c2[nH]c3c(C4CCCO4)cc(F)nc3c2-c2ccccn2)ccn1)C(CC(F)F)c1ccc(F)cc1` (single isomer, unassigned) [Example 117, (2R or S)-4,4-difluoro-N-(4-{5-fluoro-7-[(2R or S)-oxolan-2-yl]-3-(pyridin-2-yl)-1H-pyrrolo[3,2-b]pyridin-2-yl}pyridin-2-yl)-2-(4-fluorophenyl)butanamide]: the IC50 is 9.89 nM in experiment [1] and 3570 nM in experiment [2].

With `O=C(Nc1cc(-c2[nH]c3cccnc3c2-c2cccc(F)n2)ccn1)C(CC(F)F)c1ccc(F)cc1` (single isomer, unassigned; (+)) [Example 27, (+)-4,4-difluoro-2-(4-fluorophenyl)-N-{4-[3-(6-fluoropyridin-2-yl)-1H-pyrrolo[3,2-b]pyridin-2-yl]pyridin-2-yl}butanamide], the IC50 in experiment [1] and in experiment [2] was 1.55 nM in each case.

Regarding `O=C(Nc1cc(-c2[nH]c3c(N4CCNCC4)ccnc3c2-c2ccccn2)ccn1)C(CC(F)F)c1ccc(F)cc1` (single isomer, unassigned) [Example 94, (2R or S)-4,4-difluoro-2-(4-fluorophenyl)-N-{4-[7-(piperazin-1-yl)-3-(pyridin-2-yl)-1H-pyrrolo[3,2-b]pyridin-2-yl]pyridin-2-yl}butanamide], the IC50 in experiment [1] and in experiment [2] was 2.31 nM each time.

On to `Cc1cnc2c(-c3ccccn3)c(-c3ccnc(NC(=O)C(CC(F)F)c4ccc(F)cc4)c3)[nH]c2c1` (single isomer, unassigned) [Example 8, 4,4-difluoro-2-(4-fluorophenyl)-N-{4-[6-methyl-3-(pyridin-2-yl)-1H-pyrrolo[3,2-b]pyridin-2-yl]pyridin-2-yl}butanamide], for which the IC50 in experiment [1] worked out at 3.01 nM; in experiment [2], 8.57 nM.

As for `COc1cnc2c(-c3ccccn3)c(-c3ccnc(NC(=O)C(CC(F)F)c4ccc(F)cc4)c3)[nH]c2n1` (single isomer, unassigned) [Example 103, 4,4-difluoro-2-(4-fluorophenyl)-N-{4-[3-methoxy-7-(pyridin-2-yl)-5H-pyrrolo[2,3-b]pyrazin-6-yl]pyridin-2-yl}butanamide], the IC50 in experiment [1] and in experiment [2] was 1.97 nM throughout.

With `O=C(Nc1cc(-c2[nH]c3cc(F)cnc3c2-c2ccccc2)ccn1)C(CC(F)F)c1ccc(F)cc1` (single isomer, unassigned; (+)) [Example 21, (+)-4,4-difluoro-2-(4-fluorophenyl)-N-[4-(6-fluoro-3-phenyl-1H-pyrrolo[3,2-b]pyridin-2-yl)pyridin-2-yl]butanamide], the IC50 in experiment [1] is 4.21 nM; in experiment [2], 229 nM.

As to `O=C(Nc1cc(-c2[nH]c3c(Cl)ccnc3c2-c2ccccn2)ccn1)C(CC(F)F)c1ccc(F)cc1` (racemic) [Example 49, (2RS)—N-{4-[7-chloro-3-(pyridin-2-yl)-1H-pyrrolo[3,2-b]pyridin-2-yl]pyridin-2-yl}-4,4-difluoro-2-(4-fluorophenyl)butanamide], the IC50 in experiment [1] and in experiment [2] was 3.64 nM in each case.

Regarding `O=C(Nc1cc(-c2[nH]c3nccnc3c2-c2ccccn2)ccn1)C(CC(F)(F)F)c1ccc(F)cc1` (single isomer, unassigned) [Example 120, (2R or S)-4,4,4-trifluoro-2-(4-fluorophenyl)-N-{4-[7-(pyridin-2-yl)-5H-pyrrolo[2,3-b]pyrazin-6-yl]pyridin-2-yl}butanamide], the figures for the IC50 in experiment [1] and in experiment [2] were 1.36 nM and 35.8 nM, respectively.

Regarding `Cc1cc(F)nc2c(-c3ccccn3)c(-c3ccnc(NC(=O)C(CC(F)F)c4ccc(F)cc4)c3)[nH]c12` (single isomer, unassigned; (-)) [Example 38, (−)-4,4-difluoro-N-{4-[5-fluoro-7-methyl-3-(pyridin-2-yl)-1H-pyrrolo[3,2-b]pyridin-2-yl]pyridin-2-yl}-2-(4-fluorophenyl)butanamide], the IC50 in experiment [1] and in experiment [2] was 2.26 nM throughout.

As for `O=C(Nc1cc(-c2[nH]c3c(CC4CC4)cc(F)nc3c2-c2ccccn2)ccn1)C(CC(F)F)c1ccc(F)cc1` (single isomer, unassigned) [Example 48, (2R or S)—N-{4-[7-(cyclopropylmethyl)-5-fluoro-3-(pyridin-2-yl)-1H-pyrrolo[3,2-b]pyridin-2-yl]pyridin-2-yl}-4,4-difluoro-2-(4-fluorophenyl)butanamide], the IC50 in experiment [1] and in experiment [2] was 9.91 nM throughout.

Take `O=C(Nc1cc(-c2[nH]c3cncnc3c2-c2ccccn2)ccn1)C(CC(F)F)c1ccc(F)cc1` (single isomer, unassigned; (-)) [Example 14, (−)-4,4-difluoro-2-(4-fluorophenyl)-N-{4-[7-(pyridin-2-yl)-5H-pyrrolo[3,2-d]pyrimidin-6-yl]pyridin-2-yl}butanamide]: the IC50 in experiment [1] was determined as 16.4 nM; in experiment [2] it was 2140 nM.

`COc1ncnc2c(-c3ccccn3)c(-c3ccnc(NC(=O)C(CC(F)F)c4ccc(F)cc4)c3)[nH]c12` (stereo not drawn) [Example 113, 4,4-difluoro-2-(4-fluorophenyl)-N-{4-[4-methoxy-7-(pyridin-2-yl)-5H-pyrrolo[3,2-d]pyrimidin-6-yl]pyridin-2-yl}butanamide]: the IC50 was 3.74 nM in experiment [1] and 157 nM in experiment [2].

Take `Cc1cc(F)nc2c(-c3ccccn3)c(-c3ccnc(NC(=O)C(CC(F)F)c4ccc(F)cc4)c3)[nH]c12` (racemic) [Example 36, (rac)-4,4-difluoro-N-{4-[5-fluoro-7-methyl-3-(pyridin-2-yl)-1H-pyrrolo[3,2-b]pyridin-2-yl]pyridin-2-yl}-2-(4-fluorophenyl)butanamide]: the IC50 in experiment [1] and in experiment [2] was 21.4 nM each time.

As to `O=C(Nc1cc(-c2[nH]c3cccnc3c2-c2ccccn2)ccn1)C(CCO)c1ccc(F)cc1` (stereo not drawn) [Example 104, 2-(4-fluorophenyl)-4-hydroxy-N-(4-(3-(pyridin-2-yl)-1H-pyrrolo[3,2-b]pyridin-2-yl)pyridin-2-yl)-butanamide], the IC50 in experiment [1] and in experiment [2] was 6.29 nM in each case.
